Data on 3 compounds can be found in EP0226513A1, “Peptides capable of inhibiting interactions between antigens and lymphocytes T4, products derived therefrom and their applications” (INSTITUT PASTEUR, priority 1985, dated 1987).

The test system of assay [1] is interactions entre les macrophages et les lymphocytes auxiliaires (lymphocytes T4) et entre les lymphocytes T4 et les lymphocytes B. Put plainly: In vitro cell interaction tests in the system of FISHER et al (influenza virus). It counts as cell-based. To be noted: individually or in synergy tests.
For the next assay, the system named is lymphocytes T. Nature of the assay: T-lymphocyte proliferation test induced by influenza virus A/Bangkok, fresh cells (tritiated thymidine incorporation). It counts as cell-based, humain. To be noted: result in words. (Dividing cells build labelled thymidine or BrdU into new DNA.)
Assay [2] relates to lymphocytes T, lymphocytes B, monocytes. Type of assay: cell-based, humain. The settings on record: result in words; b210: peptides of different length compared, 0,1-10 µg/ml.
The next assay has as its system lymphocytes T, monocytes. Put plainly: Proliferation after separate preincubation of purified T lymphocytes and monocytes with peptides or antibodies (synergy of inhibition). Type of assay: cell-based, humain. To be noted: T lymphocytes preincubated with the labelled substance, monocytes preincubated with "T₄-12"; sub-inhibitory concentrations. The protocol:
Les monocytes sont obtenus après adhérence des cellules mononucléées (10⁷ /ml) sur boîte de Pétri (Corning) pendant une heure à 37°C. Ces boîtes de Pétri ont été préalablement incubées à 4°C avec du SVF décomplémenté, durant la nuit. Après avoir récupéré les cellules non adhérentes, les cellules adhérentes sont dé-tachées avec un barreau caoutchouté (rubber policeman) et par un pipettage vigoureux. Après deux lavages, elles sont irradiées à 4000 rads (IBL 137, source CS-137, CEA).
Les monocytes restants sont séparés des cellules non adhérentes par un traitement à la L-méthylleucine ester (5.10⁶ /ml, 5 mM final, Sigma) 40 minutes à tempé-rature ambiante (18). La réaction est arrêtée par addition de sérum AB humain (10 % final et lavages à froid).
Les lymphocytes T et B sont séparés par la technique des rosettes E. Les cellules T étant capables de former des rosettes en présence de globules rouges de mouton sensibilisés à la neuraminidase, après une incubation d'une heure à 0°C. Les cellules formant rosettes (E⁺) seront séparées des cellules ne formant pas rosettes (E⁻ ou B) par sédimentation sur gradient Ficoll-Hypaque. Les globules rouges de mouton sont lysés par choc hypotonique.
d'incubation des populations lymphoïdes purifiées avec les peptides ou des anticorps monoclonaux spécifiques des molé-cules T₄ et HLA-DR ont été effectuées. […]

Where no end group is shown, it is not given here.

Regarding `CC(C)[C@H](N)C(=O)N[C@@H](CCCNC(=N)N)C(=O)N[C@@H](Cc1ccccc1)C(=O)N[C@@H](CC(=O)O)C(=O)N[C@@H](CO)C(=O)N[C@@H](CC(=O)O)C(=O)O` [XIII, H₂N-VRFDSD-OH], the “capacité d'inhiber in vitro les interactions entre les macrophages et les lymphocytes T4 et entre les lymphocytes T4 et les lymphocytes B” value in assay [1] is “capables”.

In the case of LRFDSD [XIV, H₂N―――LRFDSD―――OH], the “capacité d'inhiber in vitro les interactions entre les macrophages et les lymphocytes T4 et entre les lymphocytes T4 et les lymphocytes B” value in assay [1] is “capables”. LRFDSDL [DR-7, H₂N-LRFDSDL-OH]: the “inhibition de la prolifération spécifique du virus influenza des lymphocytes T” value with lymphocytes T was “intermédiaires”. Besides, the “inhibition de la production d'anticorps anti-influenza” value in assay [2] is “puis and intermédiaires”. Further, the “synergie d'inhibition de la prolifération” value in the assay with lymphocytes T, monocytes is “intermédiaire”.
